In patent US20160199434A1, “COMPOSITIONS AND METHODS FOR MODULATING DNA METHYLATION” (OHIO STATE INNOVATION FOUNDATION, priority 2013, published 2016):
Entries after “also recorded” stand apart in the source; their conditions may differ.

How the values were obtained:
desmoplakin mRNA = test: Desmoplakin mRNA expression in cultured PyMT cells; type: cell-based, mouse
Experimental: (§1) FIGS. 3A-3E show the effect of AKB-6899 (25 μM) on methylation of the desmoplakin (DSP) gene promoter in PyMT breast cancer cells (3A), human MDA-MB-231 triple negative breast cancer cells (3B), human C8161.9 melanoma cells (3C), and human MCF-7 breast cancer cells (3D). In FIG. 3A, the DSP promoter was 100% unmethylated (AKB-6899) vs. 99.99% methylated (vehicle). In FIG. 3B, the DSP promoter was 99.62% unmethylated (AKB-6899) v. 99.89% (vehicle). In FIG. 3C, the DSP promoter was 99.90% unmethylated (AKB-6899) v. 42.04% (vehicle). In FIG. 3D, the DSP promoter was 92.48% unmethylated (AKB-6899) v. 98.48% (vehicle). In FIG. 3E, when compared to the vehicle (DMSO), treatment of PyMT cells with AKB-6899 increased DSP expression.
FIGS. 4A-4B show desmoplakin mRNA expression in vitro and in vivo.

DNMT-1 [1] = test: DNMT-1 transcription in H1703 lung cancer cells; type: cell-based, human; details: H1703 cells in vitro, dose-dependent (FIG. 10A)
Description: (§2) In FIG. 10A, AKB-6899 inhibited DNMT-1, DNMT-3a, and DNMT-3b transcription in a dose-dependent manner in human squamous cell carcinoma lung cancer cells (H1703), in vitro. The DMSO-treated DNMT mRNAs are over 1.0, meaning the level of expression is higher than the housekeeping control gene, CAP1. In FIG. 10B, AKB-6899 inhibited DNMT-3a and DNMT-3b transcription in human adenocarcinoma lung cancer cells (A549). The DMSO-treated DNMT mRNAs are under 1.0, meaning the level of expression is lower than the housekeeping control gene, CAP1.

DNMT-3a [2] = test: DNMT-3a transcription in A549 lung cancer cells; type: cell-based, human; details: A549 cells (FIG. 10B)
Description: as §2

DSP mRNA = DSP mRNA expression in lungs of normal mice; type: in vivo, mouse; details: i.p., three weeks (FIG. 14C)
Experimental: (§3) FIGS. 14A-14C show the effects of systemic administration of AKB-6899. Mice were treated three times per week for three weeks with either i.p. AKB-6899 or i.p. DMSO. The lungs were removed and assayed to determine DNMT mRNA expression, percent CpG methylation, and fold change in mRNA. […] The data was standardized to 1.0 by the DMSO levels of the respective gene expression, (n=4 lungs per condition).

DNMT-3b [3] = test: DNMT-3b transcription in A549 lung cancer cells; type: cell-based, human; details: A549 cells (FIG. 10B)
Description: as §2

DNMT-3b [4] = test: DNMT-3b transcription in H1703 lung cancer cells; type: cell-based, human; details: H1703 cells in vitro, dose-dependent (FIG. 10A)
Description: as §2

[5] = tested on: panel of 14 common tumor suppressor genes; test: mRNA expression of 14 tumor suppressor genes in H1703 cells; type: cell-based, human
Description: FIGS. 12A-12D show the level of mRNA expression for a panel of 14 common tumor suppressor genes in two types of human lung cancer cells (i.e., H1703 squamous cell carcinoma in FIG. 12A and A549 adenocarcinoma in FIG. 12B). […] All of the tumor suppressor mRNAs were augmented in response to AKB-6899 but one, the CDKN1C gene in A549 adenocarcinoma cells, in which expression levels were 0.1 (AKB10) and 0.9 (AKB50) compared to DMSO standardized to 1.0. In FIGS. 12A-12B, the following apply: “1”=DMSO, “2”=AKB-6899 (10 μM), “3”=AKB-6899 (50 μM), and “4”=combination of Decitabine (5 μM)/PBA (2 mM). FIGS. 12C and 12D are raw values for mRNA expression of these 14 genes.

DSP promoter = test: CpG methylation of DSP promoter in lungs of normal mice; type: in vivo, mouse; details: i.p., three weeks (FIG. 14B)
Experimental: as §3

[6] = tested on: desmoplakin (DSP) gene promoter; test: Methylation of DSP promoter in C8161.9 melanoma cells; type: cell-based, human
Experimental: as §1
The gene expression signatures from the tumors of PyMT breast tumor-bearing mice that were treated with either vehicle or AKB-6899 were evaluated. […] Methylation-specific PCR on the desmoplakin promoter was performed. The level of hypomethylation was near complete.

DNMT-1 [7] = test: DNMT-1 mRNA expression in lungs of normal mice after systemic administration; type: in vivo, mouse; details: i.p. 17.5 mg/kg three times per week for three weeks, vs DMSO
Experimental: as §3

DNMT-3a [8] = test: DNMT-3a mRNA expression by RT-PCR in PyMT tumor cells; type: cell-based, mouse; details: for DNMT-3a mRNA expression: PyMT tumor cells, 24 hours, compared to DMSO (FIG. 1A)
Experimental: FIGS. 1A-1E show DNA methyltransferase mRNA expression in vitro and in vivo. […] PyMT tumor cells were left untreated, were treated with DMSO, or were treated with AKB-6899 (10, 25, or 50 μM) for 24 hours. The cells were subjected to Trizol extraction to recover total RNA. cDNA was synthesized for RT-PCR of DNMT-1 and DNMT-3a mRNA expression. […] Human MDA-MB-231 tumor cells were left untreated, were treated with DMSO, or were treated with AKB-6899 (25 μM) for 24 hours. Total RNA was isolated for RT-PCR. FIG. 1C (DNMT-1), FIG. 1D (DNMT-3a), and FIG. 1E (DNMT-3b) compare the effect of AKB-6899 with the effect of 5-aza-2′deoxycytidine (5-AZA) as assessed by RT-PCR in human cervical tumors implanted in mice that were either untreated (UTX), treated with DMSO, treated with 5-AZA, or treated with AKB-6899 (17.5 mg/kg).
Because DSP is regulated by ER/PR expression, and because late-stage PyMT tumors lose ER/PR-positivity and heavily metastasize to the lymph nodes and lungs (Lin et al., 2003), the effects of AKB-6899 on more global events that regulate gene expression was evaluated. PyMT tumor cells in culture were treated with DMSO or AKB-6899. Methylation-specific PCR for CpG islands in the desmoplakin promoter were performed. […] Trypan Blue confirmed no cell death in AKB-6899 treated cells when compared to control cells. The experiment was repeated and RNA was isolated from the cells. RT-PCR was performed and the regulation of DNA methyltransferases (DNMTs) was evaluated. […] (FIG. 1A). The decrease in mRNA levels of DNMT-1 and DNMT-3a increased the mRNA level of DSP (FIG. 4A) and increased desmoplakin protein expression (FIG. 5A).

With `O=C(O)CNC(=O)c1ncc(-c2cccc(F)c2)cc1O` [AKB-6899, {[5-(3-Fluorophenyl)-3-hydroxypyridine-2-carbonyl]amino}acetic acid] as the molecule, how does the DSP expression (desmoplakin mRNA; PyMT cells, compared to vehicle (DMSO) (FIG. 3E)) read?
Its DSP expression is “increased”.

And the “desmoplakin mRNA expression” value (desmoplakin mRNA; cultured PyMT cells, 10 μM, compared to DMSO (FIG. 4A))?
The value was “significantly increases”.

What about the DNMT-1 transcription (DNMT-1 [1]) of the same molecule?
The DNMT-1 transcription was “inhibited”.

And the DNMT-3a transcription (DNMT-3a [2])?
Its DNMT-3a transcription is “inhibited”.

What about the “DSP mRNA expression in lungs” value (DSP mRNA) of the same molecule?
The value was “increased”.

What about the DNMT-3b transcription (DNMT-3b [3]) of the same molecule?
Its DNMT-3b transcription is “inhibited”.

What about the DNMT-3b transcription (DNMT-3b [4]) of the same molecule?
The DNMT-3b transcription was “inhibited”.

What about the “tumor suppressor mRNA expression” value ([5]; H1703, 10 μM and 50 μM, vs DMSO) of the same molecule?
The value was “augmented”.

And the “induction of mRNA expression in H1703 compared with A549” value ([5]; H1703 vs A549, Decitabine 5 μM/PBA 2 mM)?
Its value is “more effective”.

What about the “methylation of DSP promoter in lungs” value (DSP promoter) of the same molecule?
The value was “demethylated”.

What about the DSP promoter unmethylated ([6]; C8161.9 melanoma cells, 25 μM (FIG. 3C)) of the same molecule?
Its DSP promoter unmethylated is 99.90%.

And the “level of hypomethylation of desmoplakin promoter (in words)” value ([6]; C8161.9 melanoma tumor cells)?
Its value is “near complete”.

And the “DNMT-1 expression in lungs” value (DNMT-1 [7])?
Its value is “inhibited”.

And the “DNMT-3a mRNA level” value (DNMT-3a [8]; PyMT tumor cells in culture, concentration not given)?
Its value is “significant decreases; also recorded: downregulated”.

And the “DNMT-3a mRNA expression” value (DNMT-3a [8]; 25 μM)?
The value was “significantly inhibited”.

And the “DNMT-3a mRNA expression” value (DNMT-3a [8]; 50 μM)?
Its value is “significantly inhibited”.
